# Source: patent EP2987533B1, “7-substituted piperazin-1-yl fluoroquinolone compounds, their use in the treatment of cancer, pharmaceutical compositions and a method for preparation” (priority 2014, dated 2016)
# Assays:
# renal cancer = experiment: NCI five-dose SRB assay, subpanel average; settings: 48 h; for GI50 / CC50: Homo sapiens; for GI50: read-out: GI50 (median growth inhibitory); for CC50: read-out: LC50 (median lethal); for TGI (total growth inhibitory): average over renal cancer subpanel, five concentrations
# prostate cancer = experiment: NCI five-dose SRB assay, subpanel average; settings: 48 h; for GI50 / CC50: Homo sapiens; for GI50: read-out: GI50 (median growth inhibitory); for CC50: read-out: LC50 (median lethal); for TGI (total growth inhibitory): average over prostate cancer subpanel, five concentrations
# ovarian cancer = experiment: NCI five-dose SRB assay, subpanel average; settings: 48 h; for GI50 / CC50: Homo sapiens; for GI50: read-out: GI50 (median growth inhibitory); for CC50: read-out: LC50 (median lethal); for TGI (total growth inhibitory): average over ovarian cancer subpanel, five concentrations
# colon cancer = experiment: NCI five-dose SRB assay, subpanel average; settings: 48 h; for GI50 / CC50: Homo sapiens; for GI50: read-out: GI50 (median growth inhibitory); for CC50: read-out: LC50 (median lethal); for TGI (total growth inhibitory): average over colon cancer subpanel, five concentrations
# leukemia = experiment: NCI five-dose SRB assay, subpanel average; settings: 48 h; for GI50 / CC50: Homo sapiens; for GI50: read-out: GI50 (median growth inhibitory); for CC50: read-out: LC50 (median lethal); for TGI (total growth inhibitory): average over leukemia subpanel, five concentrations
# [1] = tested on: 60 human tumor cell line panel; experiment: NCI 60 cell line one-dose SRB primary anticancer assay; format: cell-based; settings: 60 cell lines assay in one dose, 10µM (title; head prints 10.0 mM), 48 h; for inhibition at 10 µM: Homo sapiens, read-out: MGI % (Mean growth inhibition percentage)
# Description: (§1) A primary anticancer assay was performed for an approximately 60 human tumor cell line panel derived from nine neoplastic diseases, in accordance with the protocol of the Drug Evaluation Branch, National Cancer Institute, Bethesda, MD (Monks A. et al., J. Natl. Cancer Inst 1991, 83, 757-766; Boyd M.R. and Paull K.D., Drug. Dev. Res. 1995, 34, 91-109; Shoemaker R.H., Nat. Rev. Cancer 2006, 6, 813-823). Briefly, tested compounds were added to the culture at a single concentration (10^-5M), and the cultures were incubated for 48 h. End point determinations were made with a protein binding dye, sulforhodamine B (SRB). The results for each tested compound were reported as the growth percentage of the treated cells when compared to that of the untreated control cells. The percentage growth was evaluated spectrophotometrically versus controls not treated with test agents.
# CNS cancer = experiment: NCI five-dose SRB assay, subpanel average; settings: 48 h; for GI50 / CC50: Homo sapiens; for GI50: read-out: GI50 (median growth inhibitory); for CC50: read-out: LC50 (median lethal); for TGI (total growth inhibitory): average over CNS cancer subpanel, five concentrations
# breast cancer = experiment: NCI five-dose SRB assay, subpanel average; settings: 48 h; for GI50 / CC50: Homo sapiens; for GI50: read-out: GI50 (median growth inhibitory); for CC50: read-out: LC50 (median lethal); for TGI (total growth inhibitory): average over breast cancer subpanel, five concentrations
# NSC lung cancer = experiment: NCI five-dose SRB assay, subpanel average; settings: 48 h; for GI50 / CC50: Homo sapiens; for GI50: read-out: GI50 (median growth inhibitory); for CC50: read-out: LC50 (median lethal); for TGI (total growth inhibitory): average over NSC lung cancer subpanel, five concentrations
# IGROV1 = experiment: NCI one-dose SRB growth assay; format: cell-based; settings: Homo sapiens, IGROV-1; IGROV1 (Ovarian Cancer), 10^-5 M, 48 h; read-out: % Growth Inhibition (GI %)
# Description: as §1
# SNB-19 = experiment: NCI one-dose SRB growth assay; format: cell-based; settings: Homo sapiens; SNB-19 (CNS Cancer), 10^-5 M, 48 h; read-out: % Growth Inhibition (GI %)
# Description: as §1
# COLO 205 = experiment: NCI one-dose SRB growth assay; format: cell-based; settings: Homo sapiens; COLO 205 (Colon Cancer), 10^-5 M, 48 h; read-out: % Growth Inhibition (GI %)
# Description: as §1
# UO-31 = experiment: NCI one-dose SRB growth assay; format: cell-based; settings: Homo sapiens; UO-31 (Renal Cancer), 10^-5 M, 48 h; read-out: % Growth Inhibition (GI %)
# Description: as §1
# UACC-257 = experiment: NCI one-dose SRB growth assay; format: cell-based; settings: Homo sapiens; UACC-257 (Melanoma), 10^-5 M, 48 h; read-out: % Growth Inhibition (GI %)
# Description: as §1
# M14 = experiment: NCI one-dose SRB growth assay; format: cell-based; settings: Homo sapiens; M14 (Melanoma), 10^-5 M, 48 h; read-out: % Growth Inhibition (GI %)
# Description: as §1
# NCI-H322M = experiment: NCI one-dose SRB growth assay; format: cell-based; settings: Homo sapiens; NCI-H322M (Non-Small Cell Lung Cancer), 10^-5 M, 48 h; read-out: % Growth Inhibition (GI %)
# Description: as §1
# SK-MEL-2 = experiment: NCI one-dose SRB growth assay; format: cell-based; settings: Homo sapiens; SK-MEL-2 (Melanoma), 10^-5 M, 48 h; read-out: % Growth Inhibition (GI %)
# Description: as §1
# HOP-92 = experiment: NCI one-dose SRB growth assay; format: cell-based; settings: Homo sapiens; HOP-92 (Non-Small Cell Lung Cancer), 10^-5 M, 48 h; read-out: % Growth Inhibition (GI %)
# Description: as §1
# HCC-2998 = experiment: NCI one-dose SRB growth assay; format: cell-based; settings: Homo sapiens; HCC-2998 (Colon Cancer), 10^-5 M, 48 h; read-out: % Growth Inhibition (GI %)
# Description: as §1
# RXF 393 = experiment: NCI one-dose SRB growth assay; format: cell-based; settings: Homo sapiens; RXF 393 (Renal Cancer), 10^-5 M, 48 h; read-out: % Growth Inhibition (GI %)
# Description: as §1
# OVCAR-3 = experiment: NCI one-dose SRB growth assay; format: cell-based; settings: Homo sapiens; OVCAR-3 (Ovarian Cancer), 10^-5 M, 48 h; read-out: % Growth Inhibition (GI %)
# Description: as §1
# MDA-MB-231/ATCC = experiment: NCI one-dose SRB growth assay; format: cell-based; settings: Homo sapiens; MDA-MB- 231/ATCC (Breast Cancer), 10^-5 M, 48 h; read-out: % Growth Inhibition (GI %)
# Description: as §1
# SF-295 = experiment: NCI one-dose SRB growth assay; format: cell-based; settings: Homo sapiens; SF-295 (CNS Cancer), 10^-5 M, 48 h; read-out: % Growth Inhibition (GI %)
# Description: as §1
# HOP-62 = experiment: NCI one-dose SRB growth assay; format: cell-based; settings: Homo sapiens; HOP-62 (Non-Small Cell Lung Cancer), 10^-5 M, 48 h; read-out: % Growth Inhibition (GI %)
# Description: as §1
# melanoma = experiment: NCI five-dose SRB assay, subpanel average; settings: 48 h; for GI50 / CC50: Homo sapiens; for GI50: read-out: GI50 (median growth inhibitory); for CC50: read-out: LC50 (median lethal); for TGI (total growth inhibitory): average over melanoma subpanel, five concentrations
# [2] = tested on: full panel of about 60 human tumor cell lines; experiment: NCI five-dose SRB assay, full panel mean; settings: 48 h; for CC50 / GI50: Homo sapiens; for CC50: 60 cell, read-out: LC50 MG-MID (Full panel mean-graph midpoint); for GI50: read-out: GI50 MG-MID (Full panel mean-graph midpoint); for TGI MG-MID (Full panel mean-graph midpoint): five concentrations
structure (smiles),measurement,setting,value
O=C(O)c1cn(C2CC2)c2cc(N3CCN(S(=O)(=O)c4ccc(Cl)c(Cl)c4)CC3)c(F)cc2c1=O [Compound 3b],GI50,renal cancer,3.19 µM
same,CC50,renal cancer,> 100 µM
same,TGI (total growth inhibitory),renal cancer,87.07 µM
same,GI50,prostate cancer,3.29 µM
same,CC50,prostate cancer,> 100 µM
same,TGI (total growth inhibitory),prostate cancer,c (Compounds showed values > 100µM)
same,GI50,ovarian cancer,3.39 µM
same,CC50,ovarian cancer,> 100 µM
same,TGI (total growth inhibitory),ovarian cancer,88.90 µM
same,GI50,colon cancer,3.79 µM
same,CC50,colon cancer,> 100 µM
same,TGI (total growth inhibitory),colon cancer,87.41 µM
same,GI50,leukemia,3.02 µM
same,CC50,leukemia,> 100 µM
same,TGI (total growth inhibitory),leukemia,62.55 µM
same,PCE (Positive cytotoxic effect: ratio between number of cell lines with percentage growth inhibition from 10 to >100 and total number of cell lines),[1],58/58
same,RGI % (Range of growth inhibition percentage),[1],>100.0 to 46.49%
same,inhibition at 10 µM,[1],89.2%
same,GI50,CNS cancer,3.68 µM
same,CC50,CNS cancer,> 100 µM
same,TGI (total growth inhibitory),CNS cancer,c (Compounds showed values > 100µM)
same,GI50,breast cancer,3040 nM
same,CC50,breast cancer,> 100 µM
same,TGI (total growth inhibitory),breast cancer,81.37 µM
same,GI50,NSC lung cancer,3.07 µM
same,CC50,NSC lung cancer,> 100 µM
same,TGI (total growth inhibitory),NSC lung cancer,84.28 µM
same,inhibition at 10 µM,IGROV1,70.7%
same,inhibition at 10 µM,SNB-19,75.3%
same,inhibition at 10 µM,COLO 205,> 100%
same,inhibition at 10 µM,UO-31,90%
same,inhibition at 10 µM,UACC-257,91.1%
same,inhibition at 10 µM,M14,81.5%
same,inhibition at 10 µM,NCI-H322M,78.7%
same,inhibition at 10 µM,SK-MEL-2,> 100%
same,inhibition at 10 µM,HOP-92,87.8%
same,inhibition at 10 µM,HCC-2998,75.2%
same,inhibition at 10 µM,RXF 393,71%
same,inhibition at 10 µM,OVCAR-3,90.1%
same,inhibition at 10 µM,MDA-MB-231/ATCC,63.4%
same,inhibition at 10 µM,SF-295,> 100%
same,inhibition at 10 µM,HOP-62,84.8%
same,GI50,melanoma,2540 nM
same,CC50,melanoma,87.1 µM
same,TGI (total growth inhibitory),melanoma,52.41 µM
same,CC50,[2],95.5 µM
same,GI50,[2],3.09 µM
same,TGI MG-MID (Full panel mean-graph midpoint),[2],60.25 µM
CCn1cc(C(=O)O)c(=O)c2cc(F)c(N3CCN(S(=O)(=O)c4cccc5ccccc45)CC3)cc21 [Compound 7a],GI50,renal cancer,3.5 µM
same,CC50,renal cancer,> 100 µM
same,TGI (total growth inhibitory),renal cancer,63.09 µM
same,GI50,prostate cancer,3.71 µM
same,CC50,prostate cancer,> 100 µM
same,TGI (total growth inhibitory),prostate cancer,c (Compounds showed values > 100µM)
same,GI50,ovarian cancer,3.07 µM
same,CC50,ovarian cancer,> 100 µM
same,TGI (total growth inhibitory),ovarian cancer,62.35 µM
same,GI50,colon cancer,3.39 µM
same,CC50,colon cancer,86.8 µM
same,TGI (total growth inhibitory),colon cancer,67.85 µM
same,GI50,leukemia,3.48 µM
same,CC50,leukemia,> 100 µM
same,TGI (total growth inhibitory),leukemia,63.22 µM
same,PCE (Positive cytotoxic effect: ratio between number of cell lines with percentage growth inhibition from 10 to >100 and total number of cell lines),[1],58/58
same,RGI % (Range of growth inhibition percentage),[1],>100.0 to 40.83%
same,inhibition at 10 µM,[1],93.8%
same,GI50,CNS cancer,3.09 µM
same,CC50,CNS cancer,> 100 µM
same,TGI (total growth inhibitory),CNS cancer,63.40 µM
same,GI50,breast cancer,2810 nM
same,CC50,breast cancer,> 100 µM
same,TGI (total growth inhibitory),breast cancer,38.49 µM
same,GI50,NSC lung cancer,3.04 µM
same,CC50,NSC lung cancer,> 100 µM
same,TGI (total growth inhibitory),NSC lung cancer,46.59 µM
same,inhibition at 10 µM,IGROV1,86.3%
same,inhibition at 10 µM,SNB-19,71.2%
same,inhibition at 10 µM,COLO 205,> 100%
same,inhibition at 10 µM,UO-31,> 100%
same,inhibition at 10 µM,UACC-257,86%
same,inhibition at 10 µM,M14,82.1%
same,inhibition at 10 µM,NCI-H322M,> 100%
same,inhibition at 10 µM,SK-MEL-2,91.2%
same,inhibition at 10 µM,HOP-92,> 100%
same,inhibition at 10 µM,HCC-2998,68.4%
same,inhibition at 10 µM,RXF 393,71%
same,inhibition at 10 µM,OVCAR-3,> 100%
same,inhibition at 10 µM,MDA-MB-231/ATCC,76.1%
same,inhibition at 10 µM,SF-295,92.3%
same,inhibition at 10 µM,HOP-62,84.9%
same,GI50,melanoma,3200 nM
same,CC50,melanoma,99.7 µM
same,TGI (total growth inhibitory),melanoma,28.33 µM
same,CC50,[2],95.5 µM
same,GI50,[2],3.09 µM
same,TGI MG-MID (Full panel mean-graph midpoint),[2],29.51 µM
O=C(O)c1cn(C2CC2)c2cc(N3CCN(S(=O)(=O)c4ccc(Cl)cc4Cl)CC3)c(F)cc2c1=O [Compound 2b],PCE (Positive cytotoxic effect: ratio between number of cell lines with percentage growth inhibition from 10 to >100 and total number of cell lines),[1],30/58
same,RGI % (Range of growth inhibition percentage),[1],79.75 to 11.78%
same,inhibition at 10 µM,[1],17.4%
same,inhibition at 10 µM,IGROV1,< 10%
same,inhibition at 10 µM,SNB-19,< 10%
same,inhibition at 10 µM,COLO 205,11.9%
same,inhibition at 10 µM,UO-31,40%
same,inhibition at 10 µM,UACC-257,< 10%
same,inhibition at 10 µM,M14,< 10%
same,inhibition at 10 µM,NCI-H322M,12.8%
same,inhibition at 10 µM,SK-MEL-2,< 10%
same,inhibition at 10 µM,HOP-92,< 10%
same,inhibition at 10 µM,HCC-2998,< 10%
same,inhibition at 10 µM,RXF 393,67.7%
same,inhibition at 10 µM,OVCAR-3,< 10%
same,inhibition at 10 µM,MDA-MB-231/ATCC,< 10%
same,inhibition at 10 µM,SF-295,< 10%
same,inhibition at 10 µM,HOP-62,11.8%
